# Reference: patent EP1944294A1, “Gamma-polymorph of a substituted pyrazoline, its preparation and use as medicaments” (Laboratorios del Dr. Esteve S.A., priority 2007, dated 2008)
# Target: recombinant human cannabinoid 1 receptor (CB1) (Homo sapiens, UniProt P21554)
# Settings: compound at 1 µM; 100 % = difference between maximal effect of WIN 55,212-2 alone and WIN 55,212-2 plus Rimonabant (1 µM)
# Procedure: Chinese hamster ovary (CHO) cells stably expressing recombinant human cannabinoid 1 receptor (CB1) are cultured in nutrient mixture Ham's F 12 supplemented with 10 % heat-inactivated fetal bovine serum, 2 mM L-glutamine, 50 U/ml penicillin, 50 U/ml streptomycin and 0.5 mg/ml geneticin. In order to obtain cells, culture flasks are washed twice with phosphate buffered saline and scraped. Then, cells are collected by centrifugation (200 x g, 10 min) and stored dry at -80°C. Cells are homogenized in ice-cold 20 mM HEPES, 10 mM EDTA (pH 7.5) and centrifuged at 40,000 x g for 15 min at 4°C. The membrane pellet is resuspended in 20 mM HEPES, 0.1 1 mM EDTA (pH 7.5) and centrifuged for 15 min at 4°C. The final membrane pellet is resuspended in 20 mM HEPES, 0.1 1 mM EDTA (pH 7.5), and divided in aliquots and stored at -80°C until use.
# The reaction is performed in 96-well plates. Membranes (15 µg protein/well) are incubated for 60 min at 30 °C in buffer (50 mM HEPES, 100 mM KCI, 5 mM MgCl2,1 mM EDTA, 0.1 % wt/vol bovine serum albumin, 5 µM GDP, saponin (10 µg/ml), 0.5 nM [^35S]GTPγS, pH 7.4) with compound at a final concentration of 1 µM in either the absence or presence of agonist WIN 55,212-2 between 3 nM and 3 µM. […] Radioactivity is determined using a Wallac Microbeta Trilux. […]
# recombinant human cannabinoid 1 receptor (CB1), sequence (P21554 whole entry): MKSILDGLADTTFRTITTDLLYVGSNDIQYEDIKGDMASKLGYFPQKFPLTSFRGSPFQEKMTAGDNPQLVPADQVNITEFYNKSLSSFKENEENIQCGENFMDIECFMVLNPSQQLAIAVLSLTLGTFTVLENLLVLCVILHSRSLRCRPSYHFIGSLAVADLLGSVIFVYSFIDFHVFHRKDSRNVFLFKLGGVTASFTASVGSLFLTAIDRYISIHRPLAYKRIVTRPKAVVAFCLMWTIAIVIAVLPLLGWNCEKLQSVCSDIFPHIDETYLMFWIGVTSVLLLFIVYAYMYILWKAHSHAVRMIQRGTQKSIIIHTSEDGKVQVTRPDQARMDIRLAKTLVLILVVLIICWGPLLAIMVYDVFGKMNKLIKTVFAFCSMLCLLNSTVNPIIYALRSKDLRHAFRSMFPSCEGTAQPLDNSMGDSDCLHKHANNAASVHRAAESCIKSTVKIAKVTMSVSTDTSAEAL
smiles,measurement,value
"O=C(NN1CCCCC1)C1=NN(c2ccc(Cl)cc2Cl)[C@@H](c2ccc(Cl)cc2)C1 [Compound A, (R)-N-piperidinyl-5-(4-chlorophenyl)-1-(2,4-dichlorophenyl)-4,5-dihydro-1H-pyrazole-3-carboxamide]",Antagonism,106%
